According to paper PMC5607274, “An iterative compound screening contest method for identifying target protein inhibitors using the tyrosine-protein kinase Yes” (Scientific Reports, 2017):

Biological target: T1, human recombinant Yes [a.a. 2–543 (end)] (Homo sapiens, UniProt P07947)
T1 construct: human recombinant Yes [a.a; 2–543 (end)]; purchased BPS Bioscience 40488
Test: ADP-Glo kinase assay, inhibition rates of Yes phosphorylation activity (first and second screening)
Assay type: biochemical
Settings: 10 μmol L−1 compound; for First screening IR (inhibition rate): mean of n = 4 wells; for Second screening IR (inhibition rate): dissolved from fresh powder, n = 4
Method: All inhibitory assays of the phosphorylation activity of Yes were performed in accordance with the Promega Technical Manual for the ADP-Glo™ Kinase Assay (Fitchburg, WI, USA. Catalog number: V9102). The human recombinant Yes [a.a. 2–543 (end)] was purchased from BPS Bioscience (catalog number: 40488). The details of the assay protocol and reagent information are given elsewhere.
The screening was conducted in three steps consisting of the first screening, the second screening, and the IC50 determination, as can be illustrated in Fig. 1b. First, we determined the inhibition rates of the 1,991 compounds. Each compound was placed in 4 wells of a 384-well plate. In total, 80 compounds were assayed on one plate and the other wells were used for positive and negative controls. The compounds were randomly placed on plates so that compounds proposed by one group were not placed on a plate together. A mean of four inhibition rates for each compound was compared to criteria for the first screening. […] Second, the inhibition rates of the screened compounds were determined on one plate using the same procedure of the first screening, where compounds were dissolved from fresh powder. […] Screened compounds were then evaluated for their IC50 values.

T1 sequence (P07947 2-543): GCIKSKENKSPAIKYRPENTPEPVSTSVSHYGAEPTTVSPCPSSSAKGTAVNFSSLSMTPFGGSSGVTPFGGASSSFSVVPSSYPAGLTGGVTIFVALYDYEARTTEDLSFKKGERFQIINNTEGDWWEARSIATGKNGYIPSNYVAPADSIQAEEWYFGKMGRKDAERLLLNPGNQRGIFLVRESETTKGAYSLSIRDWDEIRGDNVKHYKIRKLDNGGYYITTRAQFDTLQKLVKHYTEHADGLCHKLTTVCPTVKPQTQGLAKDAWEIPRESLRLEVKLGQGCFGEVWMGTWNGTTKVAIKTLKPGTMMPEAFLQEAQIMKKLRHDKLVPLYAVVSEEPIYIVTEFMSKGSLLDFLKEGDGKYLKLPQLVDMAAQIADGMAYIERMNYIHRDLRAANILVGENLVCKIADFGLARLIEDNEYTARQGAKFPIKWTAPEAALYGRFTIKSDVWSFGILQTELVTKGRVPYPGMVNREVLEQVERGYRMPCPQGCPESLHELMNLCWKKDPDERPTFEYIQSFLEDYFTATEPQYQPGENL

Structure (SMILES) | First screening IR (inhibition rate) | Second screening IR (inhibition rate)
Cl.Fc1ccccc1-c1c2c(nc3ccc(Cl)cc13)-c1ccccc1OC2 [Compound Z48955788] | -15% | –
O=C(CSc1n[nH]c(-c2cccs2)n1)Nc1ccc(-c2ccccc2)cc1 [Compound Z19449989] | 4% | –
Brc1ccc(-c2cc(-c3ccccc3)c3ccccc3n2)cc1.Cl [Compound Z48951036] | 5% | –
COCCCn1c(=O)c2ccccc2n2c(SCc3cn4ccccc4n3)nnc12 [Compound Z17893104] | -35% | –
O=S(=O)(Nc1ccc(N2CCOCC2)cc1)c1ccc(Cl)c(C(F)(F)F)c1 [Compound Z45660528] | -2% | –
Cc1cc(C)n(CCCNC(=O)c2[nH]c3c(c2C)C(=O)CCC3)n1 [Compound Z51995634] | 3% | –
O=C(Nc1ccc(N2CCCCC2)c(S(=O)(=O)Nc2ccc(Cl)cc2)c1)c1ccc(S(=O)(=O)NCc2ccco2)cc1 [Compound Z32729001] | -5% | –
Cc1sc2ncnc(N/N=C/c3cccc(O)c3)c2c1C [Compound Z49890739] | 14% | –
O=C(/C=C/c1cn(-c2ccccc2)nc1-c1cccnc1)N1CC=C(c2ccccc2)CC1 [Compound Z29699890] | 10% | –
Cc1cc(C(=O)CCC(=O)NCCc2c[nH]c3ccccc23)c(C)s1 [Compound Z32439393] | 21% | –
CCN(CC(=O)N1N=C(c2ccc(OC)cc2)CC1c1ccco1)Cc1nc2ccccc2c(=O)[nH]1 (centres unmarked) [Compound Z46301463] | -6% | –
Cc1ccc(SCC(=O)OCC(=O)Nc2ccc3[nH]c(=O)[nH]c3c2)cc1C [Compound Z16616292] | -13% | –
CC(Sc1nc2nn(-c3ccccc3)c(=O)c-2c2n1CCCCC2)C(=O)NC(=O)NC1CCCCC1 (centres unmarked) [Compound Z18614891] | 7% | –
Cc1sc2nc(-c3cccnc3)nc(NC3CC3)c2c1C [Compound Z31232965] | -3% | –
Cc1ccc(C(C)C)c(OCC(=O)NC(C)c2ccc(-n3ccnc3)cc2)c1 (centres unmarked) [Compound Z27307326] | 11% | –
CCC(C)(C)C1C/C(=C/c2ccc(Sc3nncn3C)c([N+](=O)[O-])c2)c2nc3ccccc3c(C(=O)O)c2C1 (centres unmarked) [Compound Z46116775] | 11% | –
COc1ccc(Cl)cc1NC(=O)CN(C)c1nc(CN2CCOCC2)nc2sc3c(c12)CCC(C)C3 (centres unmarked) [Compound Z31158506] | 7% | –
CCOC(=O)c1c(N)n(CC(C)NC(=O)C2CC2)c2nc3ccccc3nc12 (centres unmarked) [Compound Z56790662] | -2% | –
Cl.Fc1ccccc1-c1cc(-c2ccccc2F)c2cc(Cl)ccc2n1 [Compound Z48955797] | 11% | –
COc1ccc2c(c1)c(CC(=O)N1CCN(Cc3ccccc3)CC1)c(C)n2C(=O)c1ccc(Cl)cc1 [Compound Z27764077] | 10% | –
Cn1ncc2c(N3CCNCC3)ncnc21 [Compound Z223639244] | -11% | –

Results, then the compound that gave them:

First screening IR (inhibition rate) | Second screening IR (inhibition rate) | Structure (SMILES)
3% | – | CC(C)Oc1cc(CN(c2ncnc3c2cnn3C)C2CC2)ccn1 [Compound Z1739489055]
-8% | – | CCC(Sc1nc2ccccc2c2nc(CCN3CCCCC3)nn12)C(=O)Nc1ccc2c(c1)OCO2 (centres unmarked) [Compound Z1157834229]
6% | – | c1ccc(-c2nc3c4ccccc4c4ccccc4c3n2-c2ccccc2)cc1 [Compound Z56798059]
-10% | – | COc1ccc(CCNC(=O)Cn2c(CN3CCOCC3)nc3sc4c(c3c2=O)CCC(C)C4)cc1 (centres unmarked) [Compound Z56952971]
-4% | – | Cc1ccc(-c2noc(/C=C/c3cncc(O)c3)n2)cc1F [Compound Z1642148240]
21% | – | CC(C)n1ncc2c(C(=O)Nc3ccc(F)cc3Cl)cc(-c3ccco3)nc21 [Compound Z216417110]
2% | – | CCn1ncc2c(C(=O)NCc3cc(OC)c(OC)cc3OC)cc(-c3ccccc3)nc21 [Compound Z224953910]
-6% | – | CCN(CCC#N)S(=O)(=O)c1cccc(S(C)(=O)=O)c1 [Compound Z1116704440]
-9% | – | O=C(O)c1cccc(/C=C/c2ccnnc2)c1 [Compound Z1728621359]
-18% | – | Cn1c(CNS(=O)(=O)c2ccc(C(F)(F)F)cc2)nc2ccccc21 [Compound Z90694917]
-5% | – | CC(SCc1nc(N)nc(N(C)C)n1)C(=O)Nc1ccc(F)cc1F (centres unmarked) [Compound Z197454476]
1% | – | CC1=C(C(=O)N(C)C)C(c2ccc(-c3c(F)cccc3F)o2)NC(=S)N1 (centres unmarked) [Compound Z1211655765]
1% | – | CCc1c(C(=O)Nc2n[nH]c(-c3ccc(C)cc3)n2)cnn1-c1ccccc1 [Compound Z332932578]
59% | 2% | CS(=O)(=O)c1ccccc1S(=O)(=O)Cl [Compound Z271096440]
9% | – | Cc1cnc(C)c(NCc2cccc(Cn3ccnc3C)c2)n1 [Compound Z1687428428]
7% | – | COc1ccc(C(=O)N2CCCC2)cc1NC(=O)CC1CCCC1 [Compound Z913725738]
12% | – | Cc1cc(C)n(-c2nc(-c3cccnc3)nc3ccccc23)n1 [Compound Z56839033]
14% | – | Cc1ccccc1-n1c(SCC(=O)c2cc(C)n(CC3CCCO3)c2C)nnc1N1CCOCC1 (centres unmarked) [Compound Z92475228]
-19% | – | NC(=O)C(c1ccccc1)N1CCC(CCc2ccc(O)cc2)CC1 (centres unmarked) [Compound Z245304076]
10% | – | O=C(COC(=O)c1ccco1)Nc1nc2ccc([N+](=O)[O-])cc2s1 [Compound Z85929771]
-10% | – | C#CC(C)(C)N(C)S(=O)(=O)c1ccc(S(C)(=O)=O)cc1 [Compound Z1911236831]
1% | – | CC(Sc1ccc2c(c1)CCC2)C(=O)Nc1sc2c(c1C(N)=O)CCC2 (centres unmarked) [Compound Z113592752]
43% | 24% | Oc1c(-c2nc3ccccc3c3ccccc23)sc2ncccc12 [Compound Z107727738]
-2% | – | COCCOc1ccc(CNc2ncnc3ccccc23)cn1 [Compound Z645525338]
-3% | – | COC(=O)Cn1ncc2c(N3CCCC34CCCCC4)ncnc21 [Compound Z1527076116]
8% | – | O=C(/C=c1/[nH]c(=O)/c(=C\c2ccc(Cl)cc2)s1)c1ccncc1 [Compound Z319403812]
34% | – | Cc1cc(C)cc(C(=O)N(c2cc(C)cc(C)c2)C2C=CS(=O)(=O)C2)c1 (centres unmarked) [Compound Z166605882]
-2% | – | CC(C)S(=O)(=O)CCS(=O)(=O)c1cccc(Br)c1 [Compound Z1347351377]
55% | – | N#Cc1cccc(C(=O)NCc2nc(-c3ccc(F)cc3)n[nH]2)c1 [Compound Z1137567528]
7% | – | Nc1c(Cl)cc(Nc2nccc(C(F)(F)F)n2)cc1Cl [Compound Z318854232]
